# Counter-ions that a name gives are not always drawn.
# Key:
# [1] = Elimination of the molecules: cumulative urinary and faecal excretion 0-72 hours; format: in vivo, mouse; conditions: for Faecal elimination 0-72 hours (Faeces) / Urinary and faecal elimination 0-72 hours (Total) / Urinary elimination 0-72 hours (Urine): cumulative excretion 0-72 hours; for Faecal elimination 0-72 hours (Faeces) / Urinary elimination 0-72 hours (Urine): mice in metabolic cages; for Urinary and faecal elimination 0-72 hours (Total): urine + faeces; for elimination route (in words): urinary versus faecal, 0-72 hours
# tumour = test: Dosimetry with regard to the tumour (MIRD programme, extrapolated to ^131I); conditions: for Effective period: extrapolated to 131I labelling; for Biological period: from biodistribution data
# [2] = tested on: grafted B16 F0 murine melanoma tumour; test: Biodistribution of the ^125I-labelled molecules in the melanoma-bearing mouse (autoradiography of whole-body sections); conditions: ^125I-labelled compound
# Description: The distribution of the radioactivity of the various compounds in the body (tumour and other organs) is quantified using an Ambis 4000 image analyzer on sections of whole animals. […] All the in vivo experimentation is carried out within the context defined by French legislation relating to animal experimentation.
# The B16 F0 melanoma cells are provided by the ATCC and cultured in monolayers in culture medium (MEM, Invitrogen) supplemented with 10% foetal calf serum and antibiotics. The cultures are maintained by subculturing after trypsinization. The cells of the first passages are frozen and stored in liquid nitrogen. For the transplanting, the cells in culture at confluence are detached by trypsinization and washed with phosphate buffer (PBS).
# The distribution of the radioactivity present in the sections is analyzed using an AMBIS 4000 analyzer (Scanalytics, CSPI, San Diego, Calif.), which is a proportional counter with a multiwire chamber validated and calibrated beforehand for the monitoring of iodine in the mouse. The measurements require acquisition times of 1000 minutes. […] The value of radioactivity per unit of surface area (cpm/mm^2) is converted to concentration (kBq/g) and expressed as percentage of the injected dose/g of tissue (% ID/g).
smiles,measurement,setting,value
"CCN(CC)CCNC(=O)c1cc2cc(I)ccc2[nH]1 [compound 10, N-(2-diethylaminoethyl)-5-iodoindole-2-carboxamide hydrochloride]",Faecal elimination 0-72 hours (Faeces),[1],61.7%
same,Urinary and faecal elimination 0-72 hours (Total),[1],83.2%
same,Urinary elimination 0-72 hours (Urine),[1],21.5%
same,elimination route (in words),[1],faecal route predominates
same,Effective period,tumour,18.2 h
same,Biological period,tumour,20.1 hours
same,"Concentration of radioactivity, B 16 (tumour), Mean",[2]; 1 H after i.v. administration,8.31 % ID/g
same,"Concentration of radioactivity, Ic (intestinal contents), Mean",[2]; 1 H after i.v. administration,76.74 % ID/g
same,"Concentration of radioactivity, Sc (stomach contents), Mean",[2]; 1 H after i.v. administration,35.41 % ID/g
same,"Concentration of radioactivity, blood (measured in the heart cavity), Mean",[2]; 1 H after i.v. administration,1.60 % ID/g
same,"Concentration of radioactivity, brain, Mean",[2]; 1 H after i.v. administration,4.84 % ID/g
same,"Concentration of radioactivity, kidney, Mean",[2]; 1 H after i.v. administration,10.87 % ID/g
same,"Concentration of radioactivity, liver, Mean",[2]; 1 H after i.v. administration,11.86 % ID/g
same,"Concentration of radioactivity, lungs, Mean",[2]; 1 H after i.v. administration,14.41 % ID/g
same,"Concentration of radioactivity, muscle (skeletal muscle), Mean",[2]; 1 H after i.v. administration,1.50 % ID/g
same,"Concentration of radioactivity, pancreas, Mean",[2]; 1 H after i.v. administration,7.15 % ID/g
same,"Concentration of radioactivity, spleen, Mean",[2]; 1 H after i.v. administration,8.09 % ID/g
same,"Concentration of radioactivity, uvea (pigmented tissues of the eye), Mean",[2]; 1 H after i.v. administration,11.70 % ID/g
same,"Concentration of radioactivity, B 16 (tumour), Mean",[2]; 3 H after i.v. administration,10.22 % ID/g
same,"Concentration of radioactivity, Ic (intestinal contents), Mean",[2]; 3 H after i.v. administration,112.56 % ID/g
same,"Concentration of radioactivity, Sc (stomach contents), Mean",[2]; 3 H after i.v. administration,18.52 % ID/g
same,"Concentration of radioactivity, blood (measured in the heart cavity), Mean",[2]; 3 H after i.v. administration,0.79 % ID/g
same,"Concentration of radioactivity, brain, Mean",[2]; 3 H after i.v. administration,1.73 % ID/g
same,"Concentration of radioactivity, kidney, Mean",[2]; 3 H after i.v. administration,4.19 % ID/g
same,"Concentration of radioactivity, liver, Mean",[2]; 3 H after i.v. administration,5.21 % ID/g
same,"Concentration of radioactivity, lungs, Mean",[2]; 3 H after i.v. administration,3.46 % ID/g
same,"Concentration of radioactivity, muscle (skeletal muscle), Mean",[2]; 3 H after i.v. administration,0.49 % ID/g
same,"Concentration of radioactivity, pancreas, Mean",[2]; 3 H after i.v. administration,2.48 % ID/g
same,"Concentration of radioactivity, spleen, Mean",[2]; 3 H after i.v. administration,2.79 % ID/g
same,"Concentration of radioactivity, uvea (pigmented tissues of the eye), Mean",[2]; 3 H after i.v. administration,12.78 % ID/g
same,"Concentration of radioactivity, B 16 (tumour), Mean",[2]; 6 H after i.v. administration,9.84 % ID/g
same,"Concentration of radioactivity, Ic (intestinal contents), Mean",[2]; 6 H after i.v. administration,79.85 % ID/g
same,"Concentration of radioactivity, Sc (stomach contents), Mean",[2]; 6 H after i.v. administration,21.84 % ID/g
same,"Concentration of radioactivity, blood (measured in the heart cavity), Mean",[2]; 6 H after i.v. administration,0.67 % ID/g
same,"Concentration of radioactivity, brain, Mean",[2]; 6 H after i.v. administration,0.74 % ID/g
same,"Concentration of radioactivity, kidney, Mean",[2]; 6 H after i.v. administration,2.50 % ID/g
same,"Concentration of radioactivity, liver, Mean",[2]; 6 H after i.v. administration,3.63 % ID/g
same,"Concentration of radioactivity, lungs, Mean",[2]; 6 H after i.v. administration,1.70 % ID/g
same,"Concentration of radioactivity, muscle (skeletal muscle), Mean",[2]; 6 H after i.v. administration,0.31 % ID/g
same,"Concentration of radioactivity, pancreas, Mean",[2]; 6 H after i.v. administration,1.46 % ID/g
same,"Concentration of radioactivity, spleen, Mean",[2]; 6 H after i.v. administration,1.68 % ID/g
same,"Concentration of radioactivity, uvea (pigmented tissues of the eye), Mean",[2]; 6 H after i.v. administration,13.20 % ID/g
same,"Concentration of radioactivity, B 16 (tumour), Mean",[2]; 24 H after i.v. administration,8.16 % ID/g
same,"Concentration of radioactivity, Ic (intestinal contents), Mean",[2]; 24 H after i.v. administration,3.31 % ID/g
same,"Concentration of radioactivity, Sc (stomach contents), Mean",[2]; 24 H after i.v. administration,2.10 % ID/g
same,"Concentration of radioactivity, blood (measured in the heart cavity), Mean",[2]; 24 H after i.v. administration,0.10 % ID/g
same,"Concentration of radioactivity, brain, Mean",[2]; 24 H after i.v. administration,0.00 % ID/g
same,"Concentration of radioactivity, kidney, Mean",[2]; 24 H after i.v. administration,0.83 % ID/g
same,"Concentration of radioactivity, liver, Mean",[2]; 24 H after i.v. administration,1.61 % ID/g
same,"Concentration of radioactivity, lungs, Mean",[2]; 24 H after i.v. administration,0.37 % ID/g
same,"Concentration of radioactivity, muscle (skeletal muscle), Mean",[2]; 24 H after i.v. administration,0.19 % ID/g
same,"Concentration of radioactivity, pancreas, Mean",[2]; 24 H after i.v. administration,0.09 % ID/g
same,"Concentration of radioactivity, spleen, Mean",[2]; 24 H after i.v. administration,1.22 % ID/g
same,"Concentration of radioactivity, uvea (pigmented tissues of the eye), Mean",[2]; 24 H after i.v. administration,8.81 % ID/g
same,"Concentration of radioactivity, B 16 (tumour), Mean",[2]; 72 H after i.v. administration,0.84 % ID/g
same,"Concentration of radioactivity, Sc (stomach contents), Mean",[2]; 72 H after i.v. administration,0.04 % ID/g
same,"Concentration of radioactivity, kidney, Mean",[2]; 72 H after i.v. administration,0.71 % ID/g
same,"Concentration of radioactivity, liver, Mean",[2]; 72 H after i.v. administration,0.61 % ID/g
same,"Concentration of radioactivity, uvea (pigmented tissues of the eye), Mean",[2]; 72 H after i.v. administration,5.86 % ID/g
"CCN(CC)CCNC(=O)c1cc2c(I)cccc2s1.Cl [compound 13, N-(2-diethylaminoethyl)-4-iodobenzo[b]thiophene-2-carboxamide hydrochloride]",Faecal elimination 0-72 hours (Faeces),[1],46.7%
same,Urinary and faecal elimination 0-72 hours (Total),[1],99.3%
same,Urinary elimination 0-72 hours (Urine),[1],52.6%
same,elimination route (in words),[1],about equivalent
same,elimination kinetics from the body (in words),"[1]; urine and faeces, up to 72 hours",complete at 72 hours
same,Effective period,tumour,23.5 h
same,Biological period,tumour,26.7 hours
same,"Concentration of radioactivity, Ic (intestinal contents), Mean",[2]; 1 H after i.v. administration,71.13 % ID/g
same,"Concentration of radioactivity, Sc (stomach contents), Mean",[2]; 1 H after i.v. administration,20.00 % ID/g
same,"Concentration of radioactivity, blood (measured in the heart cavity), Mean",[2]; 1 H after i.v. administration,1.37 % ID/g
same,"Concentration of radioactivity, brain, Mean",[2]; 1 H after i.v. administration,0.81 % ID/g
same,"Concentration of radioactivity, kidney, Mean",[2]; 1 H after i.v. administration,5.61 % ID/g
same,"Concentration of radioactivity, liver, Mean",[2]; 1 H after i.v. administration,2.21 % ID/g
same,"Concentration of radioactivity, lungs, Mean",[2]; 1 H after i.v. administration,3.69 % ID/g
same,"Concentration of radioactivity, muscle (skeletal muscle), Mean",[2]; 1 H after i.v. administration,0.77 % ID/g
same,"Concentration of radioactivity, spleen, Mean",[2]; 1 H after i.v. administration,3.88 % ID/g
same,"Concentration of radioactivity, thyroid, Mean",[2]; 1 H after i.v. administration,24.03 % ID/g
same,"Concentration of radioactivity, uvea (pigmented tissues of the eye), Mean",[2]; 1 H after i.v. administration,16.09 % ID/g
same,"Concentration of radioactivity, B 16 (tumour), Mean",[2]; 3 H after i.v. administration,9.98 % ID/g
same,"Concentration of radioactivity, GB (gall bladder), Mean",[2]; 3 H after i.v. administration,65.56 % ID/g
same,"Concentration of radioactivity, Ic (intestinal contents), Mean",[2]; 3 H after i.v. administration,73.02 % ID/g
same,"Concentration of radioactivity, Sc (stomach contents), Mean",[2]; 3 H after i.v. administration,5.93 % ID/g
same,"Concentration of radioactivity, liver, Mean",[2]; 3 H after i.v. administration,1.25 % ID/g
same,"Concentration of radioactivity, thyroid, Mean",[2]; 3 H after i.v. administration,67.21 % ID/g
same,"Concentration of radioactivity, uvea (pigmented tissues of the eye), Mean",[2]; 3 H after i.v. administration,19.51 % ID/g
same,"Concentration of radioactivity, B 16 (tumour), Mean",[2]; 6 H after i.v. administration,8.72 % ID/g
same,"Concentration of radioactivity, Ic (intestinal contents), Mean",[2]; 6 H after i.v. administration,37.70 % ID/g
same,"Concentration of radioactivity, Sc (stomach contents), Mean",[2]; 6 H after i.v. administration,18.77 % ID/g
same,"Concentration of radioactivity, thyroid, Mean",[2]; 6 H after i.v. administration,139.12 % ID/g
same,"Concentration of radioactivity, uvea (pigmented tissues of the eye), Mean",[2]; 6 H after i.v. administration,16.29 % ID/g
same,"Concentration of radioactivity, B 16 (tumour), Mean",[2]; 24 H after i.v. administration,7.28 % ID/g
same,"Concentration of radioactivity, thyroid, Mean",[2]; 24 H after i.v. administration,79.82 % ID/g
same,"Concentration of radioactivity, uvea (pigmented tissues of the eye), Mean",[2]; 24 H after i.v. administration,11.06 % ID/g
same,"Concentration of radioactivity, B 16 (tumour), Mean",[2]; 72 H after i.v. administration,1.73 % ID/g
same,"Concentration of radioactivity, uvea (pigmented tissues of the eye), Mean",[2]; 72 H after i.v. administration,9.22 % ID/g
